The target of test [1] is FLT3 enzyme (GST-FLT3 fusion) (Homo sapiens (Human), UniProt P36888). The test is described as follows: FLT3 HTRF kinase assay. Format: biochemical. The following applies: 116 μM ATP. On the procedure: The FLT3 inhibitory activity of the CDK4/6-FLT3 inhibitors was determined with a HTRF kinase assay. The FLT3 enzyme (GST-FLT3 fusion) was purchased from Carna Biosciences. An ULight-labeled synthetic peptide derived from human Janus kinase 1 (aa1015-1027, ULight-JAK1, PerkinElmer) was utilized as the phosphoacceptor substrate. The assay was conducted in a 384-well white OptiPlate (PerkinElmer). The 20 μL reaction mixture contained 50 nM ULight-JAK1, 116 μM ATP, 0.0385 ng/μL FLT3 and dilutions of test compounds in the kinase buffer (50 mM Hepes, pH 7.6, 1 mM EGTA, 10 mM MgCl2, 2 mM DTT, and 0.005% Tween 20). The reaction was allowed to proceed for 1 hour at room temperature and was stopped by adding 20 μL of 10 mM EDTA, 2 nM LANCE® Eu-W1024 anti-phospho-tyrosine antibody in LANCE® detection buffer (PerkinElmer). The plates were incubated at room temperature for 2 hours after addition of detection reagents and then read on an Envision multimode reader (PerkinElmer).
(§1) IC50 values of the compounds in the above assays were determined by non-linear regression analysis using Prism (GraphPad Software).
In general terms: TR-FRET usually uses a lanthanide donor and a delayed reading to cut background.

The target of another test is CDK4/Cyclin D1 (Homo sapiens (Human), UniProt P11802). The test is described as follows: CDK4 filtration kinase assay. It is filed as biochemical. The following applies: CDK4/Cyclin D1, Rb fragment substrate, [33P]-ATP filtration assay. The protocol: The CDK4 and CDK1 inhibitory activity of the CDK4/6-FLT3 inhibitors was determined with a filtration kinase assay. The compounds, kinase and substrate diluted in the kinase buffer (20 mM Tris, pH7.4, 50 mM NaCl, 1 mM DTT, 0.1% BSA) were sequentially added to a 96-well Multiscreen HTS filtration plate (Millipore). The final 100 μL reaction mixture in each well contained 0.3 μg of CDK4/Cyclin D1 or CDK1/Cyclin B (Cell Signaling Technology), 1 μg of Rb fragment (aa773-928, Millipore) for the CDK4 assay or 5 μg of histone H1 for the CDK1 assay and 1 μCi of [^33P]-ATP. The mixture was incubated at room temperature for 1 hour. The proteins in the reaction were then precipitated and washed with cold TCA solution using an aspiration/filtration vacuum system. The plates were dried at room temperature, and the retained radioactivity was measured by scintillation counting.
as §1

For a further test, the system named is MOLM13 cells. Put plainly: [14C]-thymidine incorporation cell proliferation assay, MOLM13. It is filed as cell-based, human. The protocol:
The cell proliferation inhibition potency of the CDK4/6-FLT3 inhibitors was determined by using a [^14C]-thymidine incorporation assay. Exponentially growing cells (MOLM-13, Colo-205, etc.) were seeded in a 96-well Cytostar T plate (GE Healthcare Biosciences) at a density of 5×10^3 cells/well and incubated overnight. Serially diluted compounds and 0.1 μCi of [^14C]-thymidine (GE Healthcare Biosciences) were added to each well on the following day. After 72 hour incubation, isotope incorporation was determined with a β plate counter (Wallac). MOLM13 is a human AML tumor cell line expressing FLT3, FLT3^ITD and wild type Rb.
as §1
(Incorporation of labelled thymidine or its analogues reports DNA synthesis.)

The mark [2] stands for this setting: Homo sapiens, MOLM-13, 72 hour incubation.

Sequence of CDK4/Cyclin D1 (P11802 whole entry, the tested form may be a part): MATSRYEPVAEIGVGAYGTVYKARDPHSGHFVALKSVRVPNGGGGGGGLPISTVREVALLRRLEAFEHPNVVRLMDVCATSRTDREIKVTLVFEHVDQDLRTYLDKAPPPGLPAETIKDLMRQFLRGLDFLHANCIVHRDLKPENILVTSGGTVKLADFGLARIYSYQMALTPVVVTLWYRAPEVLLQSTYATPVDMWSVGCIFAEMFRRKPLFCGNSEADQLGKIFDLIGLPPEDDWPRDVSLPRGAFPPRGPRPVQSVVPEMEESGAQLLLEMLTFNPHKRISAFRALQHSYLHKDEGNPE
Sequence of CDK4/Cyclin D1 (P24385 whole entry partner, the tested form may be a part): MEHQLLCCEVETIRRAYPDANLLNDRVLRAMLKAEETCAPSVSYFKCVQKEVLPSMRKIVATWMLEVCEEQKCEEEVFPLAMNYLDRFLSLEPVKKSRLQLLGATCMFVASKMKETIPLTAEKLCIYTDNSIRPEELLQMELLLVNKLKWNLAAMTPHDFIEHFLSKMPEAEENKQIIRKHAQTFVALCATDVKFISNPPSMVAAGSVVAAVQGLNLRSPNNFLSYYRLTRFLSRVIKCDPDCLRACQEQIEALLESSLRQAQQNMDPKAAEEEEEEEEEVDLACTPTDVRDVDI
Sequence of FLT3 enzyme (GST-FLT3 fusion) (P36888 27-993): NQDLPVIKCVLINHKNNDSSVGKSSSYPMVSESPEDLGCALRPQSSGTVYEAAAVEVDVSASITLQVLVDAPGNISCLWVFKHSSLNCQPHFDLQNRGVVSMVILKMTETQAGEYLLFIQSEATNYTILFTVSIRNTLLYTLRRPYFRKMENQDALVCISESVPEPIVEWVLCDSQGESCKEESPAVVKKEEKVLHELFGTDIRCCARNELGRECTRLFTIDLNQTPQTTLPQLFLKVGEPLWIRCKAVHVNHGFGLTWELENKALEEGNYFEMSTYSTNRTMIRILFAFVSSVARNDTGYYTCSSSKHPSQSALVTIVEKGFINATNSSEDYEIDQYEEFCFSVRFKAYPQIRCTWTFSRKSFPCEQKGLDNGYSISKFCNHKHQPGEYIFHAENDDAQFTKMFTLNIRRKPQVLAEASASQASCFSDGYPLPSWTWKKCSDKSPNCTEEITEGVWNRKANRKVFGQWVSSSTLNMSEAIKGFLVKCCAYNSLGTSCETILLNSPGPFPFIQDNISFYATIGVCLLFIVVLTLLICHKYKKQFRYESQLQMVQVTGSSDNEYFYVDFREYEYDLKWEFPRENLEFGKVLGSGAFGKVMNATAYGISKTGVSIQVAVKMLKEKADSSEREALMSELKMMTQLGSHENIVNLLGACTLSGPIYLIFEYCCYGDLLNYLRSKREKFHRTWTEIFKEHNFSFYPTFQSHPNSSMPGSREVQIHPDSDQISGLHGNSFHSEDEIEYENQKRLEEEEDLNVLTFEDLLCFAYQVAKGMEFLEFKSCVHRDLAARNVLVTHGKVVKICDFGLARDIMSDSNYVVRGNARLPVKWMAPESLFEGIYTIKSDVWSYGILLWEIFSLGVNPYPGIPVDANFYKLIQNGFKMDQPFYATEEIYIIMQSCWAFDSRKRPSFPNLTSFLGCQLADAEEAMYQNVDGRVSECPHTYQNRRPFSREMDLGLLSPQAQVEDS

A word on the IC50: it is the concentration that inhibits the measured activity by half. High values mean weaker potency, low ones greater potency. As for `COc1cc2c3cnc(Nc4ccc5c(n4)CCNC5)nc3n([C@H]3CC[C@H](C)CC3)c2cn1` [Example 19, 6-Methoxy-9-((1r,4r)-4-methylcyclohexyl)-N-(5,6,7,8-tetrahydro-1,6-naphthyridin-2-yl)-9H-pyrido[4′,3′:4,5]pyrrolo[2,3-d]pyrimidin-2-amine], the IC50 was 33 nM in test [1], 1790 nM at CDK4/Cyclin D1 and 204 nM with MOLM13 cells (setting [2]).
For `CC1CNCc2ccc(Nc3ncc4c5ccncc5n([C@H]5CC[C@H](C)CC5)c4n3)nc21` (stereo partly drawn) [Example 13, N-(8-Methyl-5,6,7,8-tetrahydro-1,6-naphthyridin-2-yl)-9-((1r,4r)-4-methylcyclohexyl)-9H-pyrido[4′,3′:4,5]pyrrolo[2,3-d]pyrimidin-2-amine], in that order: 1.8 nM, 31.3 nM and 54.5 nM.
As for `COCCN1CCc2nc(Nc3ncc4c5ccncc5n([C@H]5CC[C@H](C)CC5)c4n3)ccc2C1` [Example 10, N-(6-(2-Methoxyethyl)-5,6,7,8-tetrahydro-1,6-naphthyridin-2-yl)-9-((1r,4r)-4-methylcyclohexyl)-9H-pyrido[4′,3′:4,5]pyrrolo[2,3-d]pyrimidin-2-amine], the figures for the IC50 (in test [1]; on CDK4/Cyclin D1; with MOLM13 cells (setting [2])) were 1.7 nM, 10.5 nM and 33.2 nM, respectively.
`CC(=O)N1CCc2nc(Nc3ncc4c5ccncc5n([C@H]5CC[C@H](C)CC5)c4n3)ccc2C1` [Example 2, 1-(2-((9-((1r,4r)-4-Methylcyclohexyl)-9H-pyrido[4′,3′:4,5]pyrrolo[2,3-d]pyrimidin-2-yl)amino)-7,8-dihydro-1,6-naphthyridin-6(5H)-yl)ethanone]: the IC50 in test [1] was 3.2 nM; against CDK4/Cyclin D1, 4.5 nM; in the test on MOLM13 cells (setting [2]) it was 22.5 nM.
For `CC(=O)N1Cc2ccc(Nc3ncc4c5ccncc5n([C@H]5CC[C@H](C)CC5)c4n3)nc2C(C)C1` (stereo partly drawn) [Example 14, 1-(8-Methyl-2-((9-((1r,4r)-4-methylcyclohexyl)-9H-pyrido[4′,3′:4,5]pyrrolo[2,3-d]pyrimidin-2-yl)amino)-7,8-dihydro-1,6-naphthyridin-6(5H)-yl)ethanone], in that order: 3.2 nM, 4.4 nM and 10.6 nM.
Consider `CC(=O)N1Cc2ccc(Nc3ncc4c5ccncc5n([C@H]5CC[C@H](C)CC5)c4n3)nc2[C@H](C)C1` (single isomer, unassigned) [Example 18a, 1((R)-8-Methyl-2-((9-((1r,4R)-4-methylcyclohexyl)-9H-pyrido[4′,3′:4,5]pyrrolo[2,3-d]pyrimidin-2-yl)amino)-7,8-dihydro-1,6-naphthyridin-6(5H)-yl)ethanone or 1((S)-8-methyl-2-((9-((1r,4S)-4-methylcyclohexyl)-9H-pyrido[4′,3′:4,5]pyrrolo[2,3-d]pyrimidin-2-yl)amino)-7,8-dihydro-1,6-naphthyridin-6(5H)-yl)ethanone], for which the results for the IC50 (in test [1]; against CDK4/Cyclin D1; in the test with MOLM13 cells (72 hour incubation)) were 1.6 nM, 18.8 nM and 24.2 nM, respectively.
`CS(=O)(=O)CCN1CCc2nc(Nc3ncc4c5ccncc5n([C@H]5CC[C@H](C)CC5)c4n3)ccc2C1` [Example 8, 9-((1r,4r)-4-Methylcyclohexyl)-N-(6-(2-(methylsulfonyl)ethyl)-5,6,7,8-tetrahydro-1,6-naphthyridin-2-yl)-9H-pyrido[4′,3′:4,5]pyrrolo[2,3-d]pyrimidin-2-amine]: the figures for the IC50 (in test [1]; on CDK4/Cyclin D1; in the test on MOLM13 cells (setting [2])) were 36.1 nM, 2.4 nM and 9.1 nM, respectively.
For `C[C@H]1CC[C@H](n2c3cnccc3c3cnc(Nc4ccc5c(n4)CCN(CCCO)C5)nc32)CC1` [Example 4, 3-(2-((9-((1r,4r)-4-Methylcyclohexyl)-9H-pyrido[4′,3′:4,5]pyrrolo[2,3-d]pyrimidin-2-yl)amino)-7,8-dihydro-1,6-naphthyridin-6(5H)-yl)propan-1-ol], the IC50 is 2 nM in test [1], 4.6 nM on CDK4/Cyclin D1 and 21.1 nM with MOLM13 cells (setting [2]).
For `CC1CN(CCO)Cc2ccc(Nc3ncc4c5ccncc5n([C@H]5CC[C@H](C)CC5)c4n3)nc21` (stereo partly drawn) [Example 15, 2-(8-Methyl-2-((9-((1r,4r)-4-methylcyclohexyl)-9H-pyrido[4′,3′:4,5]pyrrolo[2,3-d]pyrimidin-2-yl)amino)-7,8-dihydro-1,6-naphthyridin-6(5H)-yl)ethanol], in that order: 3.1 nM, 20.3 nM and 29.5 nM.
For `C[C@H]1CC[C@H](n2c3cnccc3c3cnc(Nc4cc5c(cn4)CCN(CCO)C5)nc32)CC1` [Example 12, 2-(7-((9-((1r,4r)-4-Methylcyclohexyl)-9H-pyrido[4′,3′:4,5]pyrrolo[2,3-d]pyrimidin-2-yl)amino)-3,4-dihydro-2,6-naphthyridin-2(1H)-yl)ethanol], in that order: 2.7 nM, 18.4 nM and 10.8 nM.
With `COc1cc2c3cnc(Nc4ccc5c(n4)CCN(C(=O)CO)C5)nc3n([C@H]3CC[C@H](C)CC3)c2cn1` [Example 20, 2-Hydroxy-1-(2-((6-methoxy-9-((1r,4r)-4-methylcyclohexyl)-9H-pyrido[4′,3′:4,5]-pyrrolo[2,3-d]pyrimidin-2-yl)amino)-7,8-dihydro-1,6-naphthyridin-6(5H)-yl)ethanone], the IC50 in test [1] is 144 nM; against CDK4/Cyclin D1 it was 847 nM; in the test with MOLM13 cells (setting [2]), 208 nM.
Regarding `CC(=O)N1Cc2ccc(Nc3ncc4c5ccncc5n([C@H]5CC[C@H](C)CC5)c4n3)nc2[C@@H](C)C1` (single isomer, unassigned) [Example 18b, 1-((R)-8-Methyl-2-((9-((1 r,4R)-4-methylcyclohexyl)-9H-pyrido[4′,3′:4,5]pyrrolo[2,3-d]pyrimidin-2-yl)amino)-7,8-dihydro-1,6-naphthyridin-6(5H)-yl)ethanone or 1-((S)-8-methyl-2-09-((1r,4S)-4-methylcyclohexyl)-9H-pyrido[4′,3′:4,5]pyrrolo[2,3-d]pyrimidin-2-yl)amino)-7,8-dihydro-1,6-naphthyridin-6(5H)-yl)ethanone], the IC50 in test [1] is 2.3 nM; against CDK4/Cyclin D1, 463 nM; with MOLM13 cells (72 hour incubation), 20 nM.

The values are drawn from US8623885B2, “Fused tricyclic dual inhibitors of CDK 4/6 and FLT3” (Amgen Inc., priority 2011, dated 2014).
